Laboratory results published in patent US10561650B2, “Method for treating a protozoal infection” (priority 2013, dated 2020).

Tested on: L. donovani promastigotes
Assay: Cultured L. donovani promastigotes exposed to drugs alone or in two-drug combinations
Format: cell-based
Conditions: typical serum concentrations (e.g. 5 ug/ml); DMEM culture medium; after 144 hours in culture

Cc1ncc([N+](=O)[O-])n1CCO [metronidazole]
reduction of promastigotes compared to control: ~50%

CCC(C)n1ncn(-c2ccc(N3CCN(c4ccc(OCC5COC(Cn6cncn6)(c6ccc(Cl)cc6Cl)O5)cc4)CC3)cc2)c1=O (centres unmarked) [itraconazole]
reduction of promastigotes compared to control: ~50%
